# Measured values: the supplement of paper PMC11451515
# Test system: NOMO1
# Assay: cell viability relative to DMSO control; higher = less cytotoxic
# Details: 48 h
# Outline: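 Viability is expressed as a percentage of DMSO wells within each plate, and cell-free wells serve as background. Seeding densities in the 1536-well plates (5 μl) were 500 cells/well for NOMO1 or SEM leukemia cells and 1000 cells/well for P12-Ichikawa. Each line was adapted for at least four passages in each medium. Library compounds in DMSO were pin-dosed at 47 μM to 0.79 nM (11 points, threefold), and CellTiter-Glo One luminescence was read after 48 h at 37°C.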
# [1] = HPLM + 10% dialyzed FBS, 0.000781 µM
# [2] = HPLM + 10% dialyzed FBS, 0.00234 µM
# [3] = HPLM + 10% dialyzed FBS, 0.00702 µM
# [4] = HPLM + 10% dialyzed FBS, 0.0211 µM
# [5] = HPLM + 10% dialyzed FBS, 0.0632 µM
# [6] = HPLM + 10% dialyzed FBS, 0.19 µM
# [7] = HPLM + 10% dialyzed FBS, 0.569 µM
# [8] = HPLM + 10% dialyzed FBS, 1.71 µM
# [9] = HPLM + 10% dialyzed FBS, 5.12 µM
# [10] = HPLM + 10% dialyzed FBS, 15.4 µM
# [11] = HPLM + 10% dialyzed FBS, 46.1 µM
# [12] = RPMI 5 mM glucose + 10% FBS, 0.000781 µM
# [13] = RPMI 5 mM glucose + 10% FBS, 0.00234 µM
# [14] = RPMI 5 mM glucose + 10% FBS, 0.00702 µM
# [15] = RPMI 5 mM glucose + 10% FBS, 0.0211 µM
# [16] = RPMI 5 mM glucose + 10% FBS, 0.0632 µM
# [17] = RPMI 5 mM glucose + 10% FBS, 0.19 µM
# [18] = RPMI 5 mM glucose + 10% FBS, 0.569 µM
# [19] = RPMI 5 mM glucose + 10% FBS, 1.71 µM
# [20] = RPMI 5 mM glucose + 10% FBS, 5.12 µM
# [21] = RPMI 5 mM glucose + 10% FBS, 15.4 µM
# [22] = RPMI 5 mM glucose + 10% FBS, 46.1 µM
# [23] = RPMI 5 mM glucose + 10% dialyzed FBS, 0.000781 µM
# [24] = RPMI 5 mM glucose + 10% dialyzed FBS, 0.00234 µM
# [25] = RPMI 5 mM glucose + 10% dialyzed FBS, 0.00702 µM
# [26] = RPMI 5 mM glucose + 10% dialyzed FBS, 0.0211 µM
# [27] = RPMI 5 mM glucose + 10% dialyzed FBS, 0.0632 µM
# [28] = RPMI 5 mM glucose + 10% dialyzed FBS, 0.19 µM
# [29] = RPMI 5 mM glucose + 10% dialyzed FBS, 0.569 µM
# [30] = RPMI 5 mM glucose + 10% dialyzed FBS, 1.71 µM
# [31] = RPMI 5 mM glucose + 10% dialyzed FBS, 5.12 µM
# [32] = RPMI 5 mM glucose + 10% dialyzed FBS, 15.4 µM
# [33] = RPMI 5 mM glucose + 10% dialyzed FBS, 46.1 µM
Structure (SMILES),cell viability [1] [%],cell viability [2] [%],cell viability [3] [%],cell viability [4] [%],cell viability [5] [%],cell viability [6] [%],cell viability [7] [%],cell viability [8] [%],cell viability [9] [%],cell viability [10] [%],cell viability [11] [%],cell viability [12] [%],cell viability [13] [%],cell viability [14] [%],cell viability [15] [%],cell viability [16] [%],cell viability [17] [%],cell viability [18] [%],cell viability [19] [%],cell viability [20] [%],cell viability [21] [%],cell viability [22] [%],cell viability [23] [%],cell viability [24] [%],cell viability [25] [%],cell viability [26] [%],cell viability [27] [%],cell viability [28] [%],cell viability [29] [%],cell viability [30] [%],cell viability [31] [%],cell viability [32] [%],cell viability [33] [%]
CC(Oc1ccc(O)cc1)(P(=O)(O)O)P(=O)(O)O,94.2,115,91.7,92.8,99.5,93.5,91.3,85.8,103,42.6,17.3,91.6,88,87.4,83.7,94.8,101,90.4,85.7,78.5,73.7,14.6,94.8,100,87.9,93,84.9,95.8,92,91,83.9,64.8,14.4
CCOC(=O)c1ccc(C#Cc2ccc3c(c2)C(C)(C)CCS3)nc1,101,109,122,108,86.1,104,103,101,97.8,89.1,79.6,94,108,91.6,100,93.3,94,107,96.8,99.4,98.6,94.2,90,108,104,109,97.9,90.2,90.7,94.9,94.6,99.6,88.7
CCOc1ccccc1OCCNC(C)Cc1ccc(OC)c([S+](N)(=O)[O-])c1 (stereo unspecified),103,105,96.8,121,129,119,120,114,109,115,102,98.8,110,115,117,105,112,102,101,109,102,101,90.1,108,110,112,111,108,109,101,117,104,105
Cn1c(=O)c2c(ncn2CC(O)CO)n(C)c1=O (stereo unspecified),106,109,114,119,121,136,103,120,130,103,111,119,98,100,109,104,108,103,103,103,95.3,58.2,116,116,115,128,118,115,128,120,111,99.4,62.7
CC1=C2N=C([NH]C2=CC(=C1)N3CCOCC3)\C4=C(NC[C@@H](O)C5=CC=CC(=C5)Cl)\C=C/NC4=O,86.2,100,105,99.8,98.4,92.8,79.3,65.4,61.2,44.2,44.7,104,103,109,99.1,95.7,108,89.8,73.7,68.9,65.3,57.4,99.6,101,90.4,91.9,96,87.6,72.8,67.1,53.6,57.2,49.1
NC\1=N\C(=O)N(\C=N1)[C@H]2C[C@H](O)[C@@H](CO)O2,110,138,101,115,101,107,91.4,82.4,60.2,46.5,43.6,91.8,106,89.6,92.8,93.4,93.7,98.9,85.4,71.1,51.8,31.5,109,122,107,112,98.6,109,114,96.7,76.5,65.9,36.1
C[C@@H]1CN(CC(=O)N2CC(C)(C)c3ncc(Cc4ccc(F)cc4)cc32)[C@@H](CN2CCOC[C@H]2C)CN1,100,117,145,112,129,114,112,103,109,84,46.4,96.9,120,121,111,117,121,102,109,103,95.3,91.4,95.4,119,117,119,111,114,111,106,105,98.2,69.3
